Measured values published in article PMC11742723, “The clinical-stage drug BTZ-043 accumulates in murine tuberculosis lesions and efficiently acts against Mycobacterium tuberculosis” (Nature Communications, 2025).

Test system: Mtb
Format: cell-based, Mycobacterium tuberculosis

## C[C@H]1COC2(CCN(c3nc(=O)c4cc(C(F)(F)F)cc([N+](=O)[O-])c4s3)CC2)O1 [BTZ-043]
1 ng/mL BTZ-043, bacteria from BTZ-043 treated BALB/c mice, untreated mice and H37Rv
  effect on mycobacterial growth on agar containing BTZ-043: did not restrict mycobacterial viability
5 or 10 ng/mL BTZ-043, IL-13tg mice 250 mg/kg/day 10 days
  growth of Mtb from drug treated IL-13tg mice on agar containing BTZ-043: did not grow
5 or 10 ng/mL BTZ-043, bacteria from BTZ-043 treated BALB/c mice, untreated mice and H37Rv
  mycobacterial growth on agar containing BTZ-043: No growth
